Target: human SCN9A (Nav 1.7) (Homo sapiens, UniProt Q15858)
Assay: Measurement of Na ion current (Nav 1.7) by automated patch clamp assay in cells stably-expressing human SCN9A
Format: cell-based
Conditions: holding potential inactivating 50% Nav 1.7 channel (around −60 mV), read-out: Inhibitory rate (%) of Na ion current; for inhibition at 10 µM: compound concentration 10 μmol/L; for inhibition at 100 µM: compound concentration 100 μmol/L (footnoted examples)
Method: Measurement of Na Ion Current in Voltage-Dependent Na Channel Gene Expressed Cell Nav 1.7 current was measured by automated patch clamp assay using cells stably-expressing human SCN9A. Cells Stably-expressing Human SCN9A Tetracycline-induced cells stably-expressing SCN9A were obtained from ChanTest Corporation. […] Next day, the Na ion current was measured by automated patch clamp assay. Electrophysiologic Measurement of Na Ion Current The Na ion current was measured by automated patch clamp assay using the following extracellular solution and intracellular solution. […] The control of the stimulating pulse and the data acquisition were carried out using EPC10 amplifier and Patch Master Software (HEKA). Data were sampled at 10 kHz, and low-pass filtered at 3 kHz. All the measurements were carried out at room temperature. […] The inhibitory rate of the Na ion current by the test compounds was calculated according to the following calculating formula with the peak current value generated by the depolarizing pulse. […] The inhibitory rate of Na ion current by each Example Compound was evaluated.

Chain of human SCN9A (Nav 1.7) (Q15858 whole entry): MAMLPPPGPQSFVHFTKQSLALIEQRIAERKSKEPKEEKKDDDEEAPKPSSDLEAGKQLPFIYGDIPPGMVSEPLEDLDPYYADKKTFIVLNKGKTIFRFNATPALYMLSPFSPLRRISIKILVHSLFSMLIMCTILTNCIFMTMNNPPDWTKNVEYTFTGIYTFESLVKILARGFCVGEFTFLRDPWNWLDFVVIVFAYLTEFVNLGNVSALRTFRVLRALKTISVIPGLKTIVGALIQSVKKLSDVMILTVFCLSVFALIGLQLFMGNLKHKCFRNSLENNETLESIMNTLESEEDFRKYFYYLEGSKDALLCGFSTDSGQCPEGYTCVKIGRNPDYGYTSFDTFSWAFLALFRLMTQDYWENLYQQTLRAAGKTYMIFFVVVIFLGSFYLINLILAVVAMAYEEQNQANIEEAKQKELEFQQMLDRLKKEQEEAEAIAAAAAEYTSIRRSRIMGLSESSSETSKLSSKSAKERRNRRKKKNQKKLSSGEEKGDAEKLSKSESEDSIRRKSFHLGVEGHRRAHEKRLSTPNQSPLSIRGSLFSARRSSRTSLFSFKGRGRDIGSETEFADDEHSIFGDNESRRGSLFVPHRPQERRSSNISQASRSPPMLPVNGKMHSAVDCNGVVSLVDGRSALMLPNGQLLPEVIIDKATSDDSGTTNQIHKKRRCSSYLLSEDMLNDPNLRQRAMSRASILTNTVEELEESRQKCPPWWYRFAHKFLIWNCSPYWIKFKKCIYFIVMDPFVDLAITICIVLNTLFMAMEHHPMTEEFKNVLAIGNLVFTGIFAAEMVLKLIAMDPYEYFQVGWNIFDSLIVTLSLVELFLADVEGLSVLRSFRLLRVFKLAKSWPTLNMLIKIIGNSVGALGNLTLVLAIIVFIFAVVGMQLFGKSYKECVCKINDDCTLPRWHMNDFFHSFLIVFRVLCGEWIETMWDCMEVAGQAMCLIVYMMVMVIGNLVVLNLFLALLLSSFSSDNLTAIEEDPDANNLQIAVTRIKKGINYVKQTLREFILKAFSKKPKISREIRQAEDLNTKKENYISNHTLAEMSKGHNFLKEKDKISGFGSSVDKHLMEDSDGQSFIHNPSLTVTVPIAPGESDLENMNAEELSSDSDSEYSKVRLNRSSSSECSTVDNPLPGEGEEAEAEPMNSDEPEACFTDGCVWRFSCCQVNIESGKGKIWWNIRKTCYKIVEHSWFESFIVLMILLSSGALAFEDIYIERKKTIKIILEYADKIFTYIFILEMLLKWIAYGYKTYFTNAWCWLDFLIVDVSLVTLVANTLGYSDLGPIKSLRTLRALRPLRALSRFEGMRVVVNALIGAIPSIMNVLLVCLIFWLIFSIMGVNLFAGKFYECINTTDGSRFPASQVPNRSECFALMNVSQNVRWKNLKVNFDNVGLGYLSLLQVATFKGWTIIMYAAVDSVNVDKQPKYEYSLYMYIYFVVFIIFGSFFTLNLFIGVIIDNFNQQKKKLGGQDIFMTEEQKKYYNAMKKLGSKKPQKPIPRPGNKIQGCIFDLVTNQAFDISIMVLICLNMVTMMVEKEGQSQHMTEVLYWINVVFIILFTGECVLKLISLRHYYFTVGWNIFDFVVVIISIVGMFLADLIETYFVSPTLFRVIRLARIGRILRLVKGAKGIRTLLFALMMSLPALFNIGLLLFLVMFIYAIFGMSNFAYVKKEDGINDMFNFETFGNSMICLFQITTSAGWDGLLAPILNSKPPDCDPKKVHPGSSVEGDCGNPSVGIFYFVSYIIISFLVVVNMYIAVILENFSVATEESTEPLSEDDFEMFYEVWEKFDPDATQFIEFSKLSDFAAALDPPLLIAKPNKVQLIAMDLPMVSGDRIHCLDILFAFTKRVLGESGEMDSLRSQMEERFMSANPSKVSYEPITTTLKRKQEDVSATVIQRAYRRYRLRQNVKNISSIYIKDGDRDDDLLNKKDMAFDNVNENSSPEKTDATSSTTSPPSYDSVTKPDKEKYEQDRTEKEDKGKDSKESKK

| SMILES | inhibition at 10 µM [%] | inhibition at 100 µM [%] |
| --- | --- | --- |
| OC1(Cn2cnc3ccc(Oc4ccc(Cl)c(Cl)c4)cc32)COC1 [Example 107] | 51 | – |
| CC(C)(O)Cn1cnc2ccc(Oc3ccc(C(F)(F)F)nc3)cc21 [Example 25, 2-methyl-1-(6-{[6-(trifluoromethyl)pyridin-3-yl]oxy}-1H-benzimidazol-1-yl)propan-2-ol] | 72 | – |
| COc1cccc(-c2ccc3ncn(CC4(O)COC4)c3c2)c1Cl [Example 167] | 71 | – |
| OC1(Cn2cnc3ccc(Oc4ccc(C(F)(F)F)nc4)cc32)COC1 [Example 96] | – | 32 |
| CC(C)(O)CCn1cnc2ccc(Oc3ccc(C(F)(F)F)cc3)cc21 [Example 102] | 59 | – |
| CC(C)(CO)n1cnc2ccc(Oc3ccc(C(F)(F)F)cn3)cc21 [Example 116] | 33 | – |
| OC1(Cn2cnc3ccc(-c4ccc(F)c(Cl)c4)cc32)COC1 [Example 154] | 52 | – |
| OC1(Cn2cnc3ccc(Oc4cc(Cl)cc(Cl)c4)cc32)COC1 [Example 111] | 52 | – |
| COc1cc(-c2ccc3ncn(CC4(O)COC4)c3c2)cc(C(F)(F)F)c1 [Example 163] | 47 | – |
| OC1(Cn2cnc3ccc(-c4cc(F)cc(Cl)c4)cc32)COC1 [Example 165] | 35 | – |
| Cc1ccc(Oc2ccc3ncn(CC(C)(C)O)c3c2)cn1 [Example 24, 2-methyl-1-{6-[(6-methylpyridin-3-yl)oxy]-1H-benzimidazol-1-yl}propan-2-ol] | 56 | – |
| CC(C)OCCn1cnc2ccc(Oc3ccc(F)cc3)cc21 [Example 3, 6-(4-fluorophenoxy)-1-[2-(propan-2-yloxy)ethyl]-1H-benzimidazole] | 65 | – |
| Cc1cc(-c2ccc3ncn(CC4(O)COC4)c3c2)cc(C(F)(F)F)c1 [Example 164] | 63 | – |
| Cc1cc(Cl)ccc1-c1ccc2ncn(CC(C)(C)O)c2c1 [Example 129] | 51 | – |
| CC(C)(O)Cn1cnc2cc(-c3ccc(Cl)cc3Cl)ccc21 [Example 185] | 45 | – |
| CC(C)(O)Cn1cnc2cc(-c3ccc(F)cc3)ccc21 [Example 175, 1-[5-(4-fluorophenyl)-1H-benzimidazol-1-yl]-2-methylpropan-2-ol] | 16 | – |
| CC(C)(O)Cn1cnc2ccc(-c3ccc(Cl)cc3C(F)(F)F)cc21 [Example 131] | 62 | – |
| COc1cc(C(F)(F)F)ccc1-c1ccc2c(c1)ncn2CCC(C)(C)O [Example 222] | 45 | – |
| Cc1cc(-c2ccc3c(c2)ncn3CC2(O)COC2)cc(C(F)(F)F)c1 [Example 213] | 41 | – |
| OC1(Cn2cnc3ccc(-c4ccc(Cl)c(Cl)c4)cc32)COC1 [Example 155] | 55 | – |
| OC1(Cn2cnc3ccc(Oc4ccc(C(F)(F)F)cn4)cc32)CCC1 [Example 58, 1-[(6-{[5-(trifluoromethyl)pyridin-2-yl]oxy}-1H-benzimidazol-1-yl)methyl]cyclobutanol] | 48 | – |
| CC(C)(O)Cn1cnc2ccc(Oc3ccc(CC(F)(F)F)cc3)cc21 [Example 104] | 57 | – |

| SMILES | inhibition at 10 µM [%] | inhibition at 100 µM [%] |
| --- | --- | --- |
| CC(C)(O)Cn1cnc2ccc(Oc3ccc(OC(F)(F)F)cc3)cc21 [Example 22, 2-methyl-1-{6-[4-(trifluoromethoxy)phenoxy]-1H-benzimidazol-1-yl}propan-2-ol] | 73 | – |
| COc1cc(F)ccc1-c1ccc2ncn(CC(C)(C)O)c2c1 [Example 128] | 24 | – |
| OC1(Cn2cnc3cc(-c4cccc(C(F)(F)F)c4Cl)ccc32)COC1 [Example 217] | 60 | – |
| OC1(Cn2cnc3cc(-c4cc(F)cc(Cl)c4)ccc32)COC1 [Example 214] | 42 | – |
| CC(C)(O)Cn1cnc2ccc(-c3ccc(Cl)cc3F)cc21 [Example 130, 1-[6-(4-chloro-2-fluorophenyl)-1H-benzimidazol-1-yl]-2-methylpropan-2-ol] | 48 | – |
| CC(C)(O)Cn1cnc2cc(Oc3ncc(Cl)cc3F)ccc21 [Example 54, 1-{5-[(5-chloro-3-fluoropyridin-2-yl)oxy]-1H-benzimidazol-1-yl}-2-methylpropan-2-ol] | 62 | – |
| FC(F)(F)c1ccc(-c2ccc3ncn(CCOC4CCCC4)c3c2)nc1 [Example 12, 1-[2-(cyclopentyloxy)ethyl]-6-[5-(trifluoromethyl)pyridin-2-yl]-1H-benzimidazole] | 58 | – |
| OC1(Cn2cnc3cc(-c4ccc(OC(F)(F)F)cc4)ccc32)COC1 [Example 204] | 28 | – |
| CC(C)(O)Cn1cnc2cc(-c3ccc(S(C)(=O)=O)cc3C(F)(F)F)ccc21 [Example 193] | 23 | – |
| COc1cc(-c2ccc3c(c2)ncn3CC2(O)COC2)cc(C(F)(F)F)c1 [Example 212] | 55 | – |
| OC1(Cn2cnc3ccc(-c4cc(C(F)(F)F)ccc4Cl)cc32)COC1 [Example 162] | 63 | – |
| CC(C)(O)Cn1cnc2ccc(-c3cccc(Cl)c3F)cc21 [Example 133] | 60 | – |
| OC1(Cn2cnc3ccc(Oc4ccc(F)cc4)cc32)COC1 [Example 90] | 15 | – |
| OC1(Cn2cnc3ccc(-c4cccc(Cl)c4F)cc32)COC1 [Example 153] | 25 | – |
| CC(C)(O)Cn1cnc2ccc(-c3ccc(Cl)cc3Cl)cc21 [Example 132] | 65 | – |
| CC(C)(O)Cn1cnc2ccc(-c3ccc4ocnc4c3)cc21 [Example 147] | 15 | – |
| CC(C)(O)Cn1cnc2ccc(-c3ccc(C(F)(F)F)cn3)cc21 [Example 11, 2-methyl-1-{6-[5-(trifluoromethyl)pyridin-2-yl]-1H-benzimidazol-1-yl}propan-2-ol] | 75 | – |
| CC(C)(O)Cn1cnc2ccc(-c3cccc(C(F)(F)F)c3)cc21 [Example 137] | 38 | – |
| Cc1c(-c2ccc3c(c2)ncn3CC2(O)COC2)cccc1C(F)(F)F [Example 215] | 84 | – |
| OC1(Cn2cnc3ccc(Oc4ccc5ncccc5c4)cc32)COC1 [Example 115] | 31 | – |
| CC(C)(O)Cn1cnc2cc(-c3cccc(Cl)c3F)ccc21 [Example 189] | 42 | – |
| OC1(Cn2cnc3ccc(-c4ccc(C(F)(F)F)cc4Cl)cc32)COC1 [Example 150] | 47 | – |

| SMILES | inhibition at 10 µM [%] | inhibition at 100 µM [%] |
| --- | --- | --- |
| CC(C)(O)Cn1cnc2ccc(-c3ccc(S(C)(=O)=O)cc3F)cc21 [Example 135] | 29 | – |
| C[C@@H](n1cnc2ccc(Oc3ccc(C(F)(F)F)cn3)cc21)C(C)(C)O [Example 228, (3R)-2-methyl-3-(6-{[5-(trifluoromethyl)pyridin-2-yl]oxy}-1H-benzimidazol-1-yl)butan-2-ol] | – | 66 |
| OC1(Cn2cnc3cc(-c4cc(C(F)(F)F)ccc4Cl)ccc32)COC1 [Example 211] | 44 | – |
| CC(C)(O)CCn1cnc2cc(-c3ccc(Cl)cc3)ccc21 [Example 220] | 52 | – |
| CC(C)(O)Cn1cnc2cc(Oc3cccc(C(F)(F)F)n3)ccc21 [Example 43, 2-methyl-1-(5-{[6-(trifluoromethyl)pyridin-2-yl]oxy}-1H-benzimidazol-1-yl)propan-2-ol] | 20 | – |
| CC(C)(O)Cn1cnc2ccc(-c3ccc(C(F)(F)F)cc3)cc21 [Example 9, 2-methyl-1-{6-[4-(trifluoromethyl)phenyl]-1H-benzimidazol-1-yl}propan-2-ol] | 77 | – |
| CC(C)(O)Cn1cnc2ccc(Oc3ccccc3)cc21 [Example 13, 2-methyl-1-(6-phenoxy-1H-benzimidazol-1-yl)propan-2-ol] | 25 | – |
| Fc1ccc(-c2ccc3ncn(CC4CCCO4)c3c2)cc1 (centres unmarked) [Example 6] | 41 | – |
| FC(F)(F)c1ccc(-c2ccc3ncn(CCOC4CCCC4)c3c2)cc1 [Example 10, 1-[2-(cyclopentyloxy)ethyl]-6-[4-(trifluoromethyl)phenyl]-1H-benzimidazole] | 52 | – |
| OC1(Cn2cnc3ccc(Oc4ccc(C(F)(F)F)cn4)cc32)CCOCC1 [Example 55] | 37 | – |
| CC(C)(O)CCn1cnc2ccc(-c3ccc(C(F)(F)F)cc3F)cc21 [Example 174] | 66 | – |
| CC(C)(O)Cn1cnc2ccc(-c3ccccc3OC(F)(F)F)cc21 [Example 140] | 24 | – |
| C[C@](O)(CO)Cn1cnc2ccc(Oc3ccc(C(F)(F)F)cn3)cc21 [Example 227, (2R)-2-methyl-3-(6-{[5-(trifluoromethyl)pyridin-2-yl]oxy}-1H-benzimidazol-1-yl)propane-1,2-diol] | 11 | – |
| CC(C)(O)Cn1cnc2cc(-c3ccc(Cl)cc3C(F)(F)F)ccc21 [Example 191] | 52 | – |
| CC(C)(O)Cn1cnc2ccc(-c3ccccc3Cl)cc21 [Example 138] | 34 | – |
| OC1(Cn2cnc3cc(-c4ccc(Cl)cc4C(F)(F)F)ccc32)COC1 [Example 207] | 65 | – |
| CC(C)(O)CCn1cnc2ccc(-c3ccc(F)cc3)cc21 [Example 170] | 32 | – |
| CC(C)(O)Cn1cnc2cc(-c3ccc(N4CCOCC4)cc3)ccc21 [Example 177] | 54 | – |
| CC(C)(O)Cn1cnc2cc(-c3cccc(C(F)(F)F)c3)ccc21 [Example 194] | 43 | – |
| OC1(Cn2cnc3ccc(-c4cccc(Cl)c4Cl)cc32)COC1 [Example 152] | 38 | – |
| OC1(Cn2cnc3ccc(-c4cccc(C(F)(F)F)c4Cl)cc32)COC1 [Example 168] | 77 | – |

Reference: patent publication US10407395B2, “Benzimidazole compound and medical use thereof” (Sumitomo Dainippon Pharma Co., Ltd., priority 2015, dated 2019)
